The subject of test [1] is spontaneously hypertensive rats. In words: Antihypertensive action in spontaneously hypertensive rats (SBP, tail-cuff). The settings on record: SHRs, oral, 100 mg/kg BW, at 2 h.
Experimental: All experiments were performed in accordance with the Regulations of Experimental Animal Administration issued by the State Committee of Science and Technology of the People’s Republic of China and also with the approval of the Animal Experimentation Ethics Committee of The Chinese University of Hong Kong which had been procured prior to the animal experiments. SHRs with systolic blood pressure (SBP) higher than 180 mmHg were randomly divided into six groups after acclimation for 1 week. During the acclimatization period prior to the test, the blood pressures of the rats were measured four times weekly. Each group containing four rats. […] The group treated with crude water extract of T. matsutake received the extract at two different concentrations: 200 mg/kg body weight and 400 mg/kg body weight. SBP was measured thrice at each of the following time points: 0, 0.5, 2, 4, 6 and 8 h after drug/sample administration, using a tail-cuff method with a programmable BP-100A electro-sphygmomanometer (Chengdu Taimeng Software Co., Ltd., Chengdu, China).
Test [2] has as its system ACE. The settings on record: cited from earlier work.
For test [3], the target named is T1, ACE (Oryctolagus cuniculus, UniProt P12822).
T1 construct: ACE was prepared using fresh rabbit lungs according to the protocol reported by Hayakari et al; from tissue; host or cells: fresh rabbit lungs (supernatant of homogenate)
T1 sequence (P12822 34-1310): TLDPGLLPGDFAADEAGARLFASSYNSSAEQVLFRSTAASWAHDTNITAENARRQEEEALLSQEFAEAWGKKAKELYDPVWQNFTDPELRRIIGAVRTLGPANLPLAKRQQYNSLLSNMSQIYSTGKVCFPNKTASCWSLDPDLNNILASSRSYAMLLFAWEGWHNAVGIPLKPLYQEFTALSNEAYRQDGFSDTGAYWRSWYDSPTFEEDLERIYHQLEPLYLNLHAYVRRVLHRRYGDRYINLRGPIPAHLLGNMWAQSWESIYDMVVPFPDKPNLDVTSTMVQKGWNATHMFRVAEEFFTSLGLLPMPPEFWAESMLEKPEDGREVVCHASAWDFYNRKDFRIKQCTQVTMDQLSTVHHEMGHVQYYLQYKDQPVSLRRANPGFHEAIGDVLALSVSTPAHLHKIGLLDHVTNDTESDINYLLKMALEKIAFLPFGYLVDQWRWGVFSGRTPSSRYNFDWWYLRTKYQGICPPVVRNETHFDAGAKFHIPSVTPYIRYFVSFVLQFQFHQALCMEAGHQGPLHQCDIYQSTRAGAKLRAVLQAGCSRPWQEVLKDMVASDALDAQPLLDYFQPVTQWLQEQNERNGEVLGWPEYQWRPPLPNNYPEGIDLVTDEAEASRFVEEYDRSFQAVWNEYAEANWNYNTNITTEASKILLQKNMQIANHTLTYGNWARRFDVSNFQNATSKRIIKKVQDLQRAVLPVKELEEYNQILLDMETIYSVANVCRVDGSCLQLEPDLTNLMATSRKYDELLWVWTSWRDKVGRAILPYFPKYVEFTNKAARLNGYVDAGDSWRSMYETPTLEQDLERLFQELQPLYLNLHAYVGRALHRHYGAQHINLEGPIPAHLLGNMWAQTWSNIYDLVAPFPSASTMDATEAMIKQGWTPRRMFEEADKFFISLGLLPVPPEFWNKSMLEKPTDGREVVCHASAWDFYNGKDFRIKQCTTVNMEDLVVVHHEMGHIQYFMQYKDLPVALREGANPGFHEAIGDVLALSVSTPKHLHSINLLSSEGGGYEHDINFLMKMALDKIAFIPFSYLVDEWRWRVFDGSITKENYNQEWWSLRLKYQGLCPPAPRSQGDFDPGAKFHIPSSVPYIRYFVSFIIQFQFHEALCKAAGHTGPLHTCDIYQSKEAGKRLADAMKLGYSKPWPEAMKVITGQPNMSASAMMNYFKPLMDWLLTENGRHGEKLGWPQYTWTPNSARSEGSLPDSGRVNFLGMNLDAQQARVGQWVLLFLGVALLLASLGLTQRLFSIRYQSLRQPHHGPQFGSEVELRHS
The experiment in a line: Assay of ACE inhibitory activity (spectrophotometric, HHL substrate). The test is classed as biochemical, rabbit. The settings on record: chemically synthesized peptides; means ± S.D. of three determinations. As for the experimental part: ACE was prepared using fresh rabbit lungs according to the protocol reported by Hayakari et al.[35] with some modifications. After washing with ice-cold 0.15 M NaCl, the rabbit lungs without connective tissues were cut up to small pieces and homogenized in 10 volumes of ice-old 0.1 M sodium borate buffer (pH 8.3) containing 0.25 M sucrose and 0.1 mM PMSF. The homogenate was centrifuged at 9,000 rpm for 40 min at 4 °C after dialysis at 4 °C overnight in 0.1 M sodium borate buffer (pH 8.3). The resulting supernatant was centrifuged at 9,000 rpm for 40 min at 4 °C again. The ACE activity in the supernatant was determined and the supernatant was aliquoted and then stored at −20 °C for further experiments.
The ACE inhibitory activity was assayed by using a spectrophotometric method following the protocol described by Cushman[36] with modifications. Briefly, an aliquot (20 μL) of the sample was mixed with 20 μL ACE and 150 μL 5 mM HHL in 0.1 M borate buffer (pH 8.3) containing 0.3 M NaCl. The reaction mixture was incubated at 37 °C for 30 min, and then the reaction was terminated by adding 500 μL 1 M HCl. The hippuric acid formed was extracted with 1.2 mL ethyl acetate and centrifuged at 4,000 rpm for 10 min. Then 800 μL of the upper organic phase was heat-evaporated at 95 °C for 35 min to remove ethyl acetate. The dried residue was dissolved in 800 μL distilled water and vortex mixed, and the absorbance was measured spectrophotometrically at 228 nm to estimate ACE inhibitory activity. ACE-inhibitory activity was calculated by using the equation 1: […]
where A was the absorbance of the solution containing ACE and inhibitor, B was the absorbance of solution containing ACE and inhibitor but terminated in advance, C was the absorbance of the solution containing ACE without inhibitor, and D was the absorbance of the solution containing ACE without inhibitor but terminated in advance. The concentration of the inhibitor required to inhibit 50% of the ACE activity under the above assay conditions was defined as IC50.

Where [4] appears, read: mushroom species printed in the row: Tricholoma matsutake, ref not given.
Setting [5] is: peptide from Pleurotus cystidiosus.
Where [6] appears, read: peptide from Tricholoma giganteum.
[7] abbreviates: peptide from Hypsizygus marmoreus.

Like-named read-outs stand apart in the source and are kept apart here. Where no end group is shown, it is not given here.

As for `C[C@H](CS)C(=O)N1CCC[C@H]1C(=O)O` [captopril], the “maximum decrease in SBP” value in test [1] came out at 38 mm Hg. In the case of AHEPVK, in the test with ACE [2] (setting [4]), the IC50 is 63000 nM and the “Mode of inhibitory of ACE” value is listed as “Competitive”. Moreover, in the test on ACE [2] (setting [5]), the IC50 is 62800 nM and the “Mode of inhibitory of ACE” value is “Competitive”. GPSMR: in the test with ACE [2] (setting [5]), the IC50 is 278000 nM and the “Mode of inhibitory of ACE” value is listed as “Competitive”.

Turning to GQGGP, the IC50 in the test with ACE [2] (peptide from Pholiota adiposa) was 100 nM.

On to GQP, for which, in the test with ACE [2] (setting [6]), the half-inhibitory concentration (IC50) is 130 nM and the “Mode of inhibitory of ACE” value is recorded as “Competitive”.

For IISKIK [IISKIK], it took 1190 ± 260 nM to reach half-maximal inhibition on ACE [3] (IC50).

Compound ILSKLK [ILSKLK] returned a 50% inhibitory concentration (IC50) against ACE [3] of 4020 ± 310 nM. With LIDKVVK [LIDKVVK], the half-inhibitory concentration (IC50) at ACE [3] worked out at 620 ± 420 nM. Same read-out and setting: the same measure for LLVTLKK [LLVTLKK]: 950 ± 120 nM.

On to LSMGSASLSP, for which, in the test with ACE [2] (setting [7]), the IC50 was 330 nM and the “Mode of inhibitory of ACE” value is reported as “Non-competitive”. PSSNK: in the test on ACE [2] (peptide from Agaricus bisporus), the 50% inhibitory concentration (IC50) was 129000 nM and the “Mode of inhibitory of ACE” value is on record as “Non- competitive”. For RIGLF, in the test with ACE [2] (peptide from Agaricus bisporus), the half-maximal inhibitory concentration (IC50) was 116000 nM and the “Mode of inhibitory of ACE” value is “Competitive”. With RLPSEFDLSAFLRA, in the test on ACE [2] (peptide from P. cornucopiae), the IC50 was 280 nM and the “Mode of inhibitory of ACE” value is “Competitive”. On to RLSGQTIEVTSEYLFRH, for which, in the test with ACE [2] (peptide from P. cornucopiae), the IC50 was 560 nM and the “Mode of inhibitory of ACE” value is given as “Non-competitive”. Regarding VIQKYP, in the test on ACE [2] (peptide from Grifola frondosa), the IC50 is 120 nM and the “Mode of inhibitory of ACE” value was “Competitive”. The compound WALKGYK [TMP, WALKGYK] gave an IC50 at ACE [3] of 400 ± 290 nM.
